A short description of this data set: Pharmacokinetics of JHG components in pulmonary fibrosis (PF) model rats after intragastric administration of JHGs (plasma, Orbitrap Fusion MS). Format: in vivo, Sprague Dawley (SD) rats. To be noted: for Cmax, PF model group compared with the control group: medium dose selected for comparison; for AUCs, PF model group compared with the control group: p < 0.05; for Tmax / half-life / MRT last / Cmax / AUC(0-inf) / AUC(0-t) / MRT inf: male, rat, plasma, po; for pharmacokinetic process (versus dosage): low, medium, high doses of JHGs; for MRT last: read-out: MRT(0-t); for Cmax: intragastric JHGs; for MRT inf: read-out: MRT(0-∞). A digest of the protocol: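 Fasted male SD rats, healthy or bleomycin-induced PF (5 mg/kg intratracheal, dosed at day 28), received oral JHGs at 10.8, 21.6 or 43.2 g raw drug/kg. Tail-vein plasma was taken from 0.083 to 24 h, extracted with methanol, and quantified by C18 LC–Orbitrap MS (ESI, SIM) against an internal standard.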

Setting [1] is: Sprague-Dawley, PF model rats, after administration of JHGs, read-out: Tmax of all dosages.
[2] abbreviates: PF model rats, JHGs high dose 22.81 g/kg/d.
The mark [3] stands for this setting: PF model rats, JHGs low dose 5.70 g/kg/d.
Where [4] appears, read: PF model rats, JHGs medium dose 11.41 g/kg/d.
Setting [5] is: Sprague Dawley, 5.7 g/kg/day, PF model rats, JHGs low dose 5.70 g/kg/d.
The mark [6] stands for this setting: Sprague Dawley, 5.7 g/kg/day, PF model rats, JHGs low dose 5.70 g/kg/d, read-out: Tmax.
[7] abbreviates: Sprague Dawley, 5.7 g/kg/day, PF model rats, low dose 5.70 g/kg/d, n=6 (1st of 3 stacked values).
The mark [8] stands for this setting: Sprague Dawley, 11.41 g/kg/day, PF model rats, JHGs medium dose 11.41 g/kg/d.
Where [9] appears, read: Sprague Dawley, 11.41 g/kg/day, PF model rats, JHGs medium dose 11.41 g/kg/d, read-out: Tmax.
[10] abbreviates: Sprague Dawley, 11.41 g/kg/day, PF model rats, medium dose 11.41 g/kg/d, n=6 (2nd of 3 stacked values).
[11] abbreviates: Sprague Dawley, 22.81 g/kg/day, PF model rats, JHGs high dose 22.81 g/kg/d.
[12] abbreviates: Sprague Dawley, 22.81 g/kg/day, PF model rats, JHGs high dose 22.81 g/kg/d, read-out: Tmax.
Setting [13] is: Sprague-Dawley, 5.7 g/kg/day, PF model rats, JHGs low dose 5.70 g/kg/d.
The mark [14] stands for this setting: Sprague-Dawley, 11.41 g/kg/day, PF model rats, JHGs medium dose 11.41 g/kg/d.
Where [15] appears, read: Sprague-Dawley, 22.81 g/kg/day, PF model rats, JHGs high dose 22.81 g/kg/d.
Where [16] appears, read: Sprague-Dawley, 22.81 g/kg/day, PF model rats, high dose 22.81 g/kg/d, n=6 (3rd of 3 stacked values).

Molecules are shown by their SMILES. Where two headings read alike, the source gives them in different places.

Usually Tmax stands for the time at which the peak concentration occurs. One may read the Vss as a proportionality between amount in the body and measured concentration, not a real space. The low end stands for little distribution into tissue, the high end for wide distribution into tissue. By half-life is commonly meant the time in which the quantity being followed falls by half. A higher half-life goes with slow decline. What is called Cmax is the highest concentration seen after dosing. As a reminder, the AUC(0-inf) is total exposure, with the tail of the curve extrapolated. What is called AUC(0-t) is the area under the concentration-time curve up to a stated or last time point. A low value points to less exposure.

Consider `O=c1cc(-c2ccc(O)cc2)oc2cc(OC3OC(CO)C(O)C(O)C3O)cc(O)c12` (stereo not drawn) [Apigenin-7-glucoside], for which, under “PF model vs control rats”, the “Tmax, PF model group compared with the control group” value is “decreased significantly”; the “Cmax, PF model group compared with the control group” value is reported as “significantly decreased”; the “AUCs, PF model group compared with the control group” value is “significantly decreased”. Moreover, the Tmax under setting [1] is not above 2 h.
Regarding `O=c1cc(-c2ccc(O)c(O)c2)oc2cc(O[C@@H]3O[C@H](CO)[C@@H](O)[C@H](O)[C@H]3O)cc(O)c12` [Cynaroside], where the note is “PF model rats”, the “Cmax and AUCs (AUC(0–t), AUC (0–∞)) compared among the analytes” value is on record as “highest”; the “correlation between CL, AUC, t½, and dose” value is on record as “there was a correlation”; the “pharmacokinetic process (versus dosage)” value is recorded as “linear pharmacokinetic process”. In addition, where the note is “PF model vs control rats”, the “AUC(0–t) in the model group relative to the control group” value is given as “approximately twice as high” and the “Cmax in the model group relative to the control group” value is “approximately twice as high”.
In the case of `COc1ccc(-c2cc(=O)c3c(OC)c(OC)c(OC)c(OC)c3o2)cc1OC` [Nobiletin], the Clearances came out at 1307 ± 264.2 mL/min/kg under setting [2], 119 ± 11.8 mL/min/kg under setting [3] and 327.5 ± 83.7 mL/min/kg under setting [4]. Besides, the Vss reads like this: under setting [2], 864 ± 195.9 L; under setting [3], 166.86 ± 26.65 L; under setting [4], 769.75 ± 168.2 L. This molecule showed a half-life under setting [5] of 17.6 ± 1.82 h, a half-life under setting [8] of 31.5 ± 13.3 h and a half-life under setting [11] of 9.59 ± 3.39 h. Also, the MRT last reads like this: under setting [5], 8.86 ± 0.2 h; under setting [8], 9.13 ± 0.25 h; under setting [15], 6.66 ± 0.35 h. The time of peak concentration (Tmax) reads like this: under setting [6], 0.75 h; under setting [9], 0.75 h; under setting [12], 0.75 h; under setting [1], not above 2 h. The Cmax reads like this: under setting [7], 2.97 ± 0.67 ng/mL; under setting [10], 3.37 ± 0.53 ng/mL; under setting [16], 3.57 ± 0.3 ng/mL. For the same molecule, the AUC(0-inf) under setting [13] was 33.4 ± 4.41 ng·h/mL, the AUC(0-inf) under setting [14] stood at 43.1 ± 11.1 ng·h/mL and the AUC(0-inf) under setting [15] is 18 ± 3.39 ng·h/mL. Besides, the area under the curve AUC(0-t) stood at 21.6 ± 3.48 ng·h/mL under setting [13], 20 ± 2.62 ng·h/mL under setting [14] and 15.5 ± 2.99 ng·h/mL under setting [15]. The MRT inf is, setting by setting: under setting [13], 23.2 ± 2.12 h; under setting [14], 41.8 ± 18.4 h; under setting [15], 11.1 ± 1.44 h.
For `COc1ccc(C(C)=O)c(O)c1` [Paeonol], the Clearances is, setting by setting: under setting [2], 4714 ± 1513 mL/min/kg; under setting [3], 1560 ± 427.7 mL/min/kg; under setting [4], 5269.7 ± 1130 mL/min/kg. The molecule further had a volume of distribution (Vss) under setting [2] of 12017.41 ± 3866.6 L, a Vss under setting [3] of 2980.29 ± 449.33 L and a Vss under setting [4] of 8115.77 ± 895.52 L. The “Cmax, PF model group compared with the control group” value (PF model vs control rats) is “significantly decreased”. Besides, the “AUCs, PF model group compared with the control group” value (PF model vs control rats) is on record as “significantly decreased”. The half-life runs as follows: under setting [5], 25.5 ± 8.84 h; under setting [8], 19.2 ± 6.63 h; under setting [11], 36.4 ± 25.6 h. For the same molecule, the MRT last amounted to 9.14 ± 0.1 h under setting [5], 9.7 ± 0.37 h under setting [8] and 9.41 ± 0.4 h under setting [15]. The Tmax is, setting by setting: under setting [6], 0.5 h; under setting [9], 0.75 h; under setting [12], 3 h; under setting [1], not above 2 h. Moreover, the Cmax reads like this: under setting [7], 2.79 ± 0.6 ng/mL; under setting [10], 3.16 ± 0.22 ng/mL; under setting [16], 3.63 ± 0.33 ng/mL. Moreover, the area under the curve AUC(0-inf) by setting is: under setting [13], 41.8 ± 12.1 ng·h/mL; under setting [14], 41.6 ± 9.78 ng·h/mL; under setting [15], 83.4 ± 34.3 ng·h/mL. The area under the curve AUC(0-t) amounted to 21.8 ± 2.86 ng·h/mL under setting [13], 24.5 ± 2.15 ng·h/mL under setting [14] and 35 ± 1.86 ng·h/mL under setting [15]. Further, the MRT inf by setting is: under setting [13], 33.8 ± 11.4 h; under setting [14], 26.9 ± 8.95 h; under setting [15], 49.6 ± 33.3 h.
As to `CC1=C2CC3C(CC(=O)C4CC(O)CCC43C)C2CCC12OC1CC(C)CNC1C2C` (stereo not drawn) [Peimisine], the Clearances reads like this: under setting [2], 5.83 ± 1 mL/min/kg; under setting [3], 2.33 ± 0.33 mL/min/kg; under setting [4], 4.33 ± 0.83 mL/min/kg. Moreover, the volume of distribution (Vss) was found to be 4.24 ± 0.61 L under setting [2], 1.62 ± 0.32 L under setting [3] and 2.91 ± 0.52 L under setting [4]. The “pharmacokinetic process (versus dosage)” value (PF model rats) is listed as “linear pharmacokinetic process”. The “MRT(0–t), PF model group compared with the control group” value (PF model vs control rats) was “decreased”. This molecule gave a half-life under setting [5] of 7.2 ± 0.28 h, a half-life under setting [8] of 8.25 ± 0.94 h and a half-life under setting [11] of 5.96 ± 0.23 h. Moreover, the MRT last under setting [5] was 7.56 ± 0.17 h, the MRT last under setting [8] came out at 7.92 ± 0.2 h and the MRT last under setting [15] amounted to 9.84 ± 0.24 h. Moreover, the time to peak (Tmax) under setting [6] came to 1.5 h, the Tmax under setting [9] came out at 3.67 ± 0.58 h and the time of peak concentration (Tmax) under setting [12] turned out to be 8 h. In addition, the maximum concentration (Cmax) runs as follows: under setting [7], 2.05 ± 0.49 ng/mL; under setting [10], 2.51 ± 0.55 ng/mL; under setting [16], 2.76 ± 0.48 ng/mL. Also, the AUC(0-inf) under setting [13] stood at 14.6 ± 2.48 ng·h/mL, the AUC(0-inf) under setting [14] is 26.8 ± 5.8 ng·h/mL and the total exposure AUC(0-inf) under setting [15] was found to be 33.1 ± 6.82 ng·h/mL. This molecule also came in with an AUC(0-t) under setting [13] of 12.3 ± 2.23 ng·h/mL, an exposure AUC(0-t) under setting [14] of 23.4 ± 5.01 ng·h/mL and an AUC(0-t) under setting [15] of 29.7 ± 5.82 ng·h/mL. Further, the MRT inf runs as follows: under setting [13], 11.8 ± 0.51 h; under setting [14], 11.4 ± 1.05 h; under setting [15], 12.2 ± 0.39 h.

Source of the values: paper PMC10534582, “A Pharmacokinetic Study of Sixteen Major Bioactive Components of Jinshui-Huanxian Granules in Pulmonary Fibrosis Model and Control Rats Using Orbitrap Fusion Mass Spectrometry” (Molecules, 2023).
